One data set relates to HIV-1 AZT-R. Particulars: read-out: IC50 (μM ± SD), HIV-1 AZT-R; RT-resistant isolate, subtype B, MT-2, coreceptor X4. As to the method:
(§1) The inhibitory activity of NYAD-201, and related stapled peptides on infection by laboratory-adapted HIV-1 strains was determined as previously described (Jiang et al. J Exp. Med 174:1557-1563, 1991) with minor modifications. Azidothymidine (AZT) was used as a positive control in the infectivity assays. In brief, 1×10^4 MT-2 cells were infected with HIV-1 at 100 TCID50 (50% tissue culture infective dose) (0.01 MOI [multiplicity of infection]) in 200 μl RPMI 1640 medium containing 10% FBS in the presence or absence of peptides at graded concentrations overnight. The culture supernatants were then removed and fresh media containing freshly prepared test peptide were added. On the fourth day post-infection, 100 μl of culture supernatants were collected from each well, mixed with equal volume of 5% Triton X-100 and tested for p24 antigen by ELISA.
(§2) In addition, NYAD-201, NYAD-202 and NYAD-203 were also tested using several laboratory-adapted and primary isolates in MT-2 cells and PBMC (peripheral blood mononuclear cells), respectively.

A further data set deals with HIV-1 IIIB. The protocol:
as §1, §2

A further data set deals with Jurkat cells. Nature of the data set: Cytotoxicity, LDH leakage, Jurkat cells. The format is cell-based. Particulars: 30 min, 2 hr and 4 hr of exposure. As to the method:
Cytotoxicity was also evaluated in Jurkat cells using a Promega LDH leakage detection kit. Jurkat cells were plated at 10^4 cells/well in a volume of 200 μl. The test was performed after 30 min, 2 hr and 4 hr of exposure to the NYAD-201, NYAD-202 and NYAD-203 compounds.
In general terms: Release of lactate dehydrogenase indicates damage to the cell membrane.

The nature of data set [1]: Cytotoxicity, XTT method, PBMC. The format is cell-based. Particulars: human. As to the method: (§3) Cytotoxicity of peptides in MT-2 cells and PBMC was measured by the XTT [(sodium 3′-(1-(phenylamino)-carbonyl)-3,4-tetrazolium-bis(4-methoxy-6-nitro) bezenesulfonic acid hydrate)] method as previously described (Jiang et al., 2004). Briefly, for MT-2 cells, 100 μl of a peptide at graded concentrations was added to an equal volume of cells (1×10^5 cells/ml) in 96-well plates followed by incubation at 37° C. for 4 days, which ran parallel to the neutralization assay in MT-2 (except medium was added instead of virus). In the case of PBMC, 5×10^5 cells/ml were used and the cytotoxicity was measured after 7 days. After addition of XTT (PolySciences, Inc.), the soluble intracellular formazan was quantitated colorimetrically at 450 nm 4 hr later with a reference at 620 nm. The percent of cytotoxicity and the CC50 values were calculated as above (Table 2 and Table 3).

Data set [2] can be described thus: Cytotoxicity, XTT method, MT-2 cells. The data set is classed as cell-based, human. Particulars: human, read-out: CC50 (μM) ± SD, cytotoxicity in MT-2 cells. The protocol: as §3
On the technique in general: Tetrazolium assays rely on reduction of a dye to a coloured formazan, in cell work by metabolically active cells.

Setting [3] is: read-out: IC50 (μM) ± SD, antiviral activity against HIV-1 IIIB, MT-2 cells, p24 production, fourth day post-infection.

This is an account of results in patent publication US8933019B2, “Antiviral cell-penetrating peptides” (priority 2008, dated 2015).

Where two headings read alike, the source gives them in different places. Bridge positions count the residues as written; N and C are the ends. Square brackets hold non-standard residues; d marks the D form. Peptide text beside a SMILES is read from it. R8 = C=CCCCCCC[C@@](C)(N)C(=O)O; S5 = C=CCCC[C@](C)(N)C(=O)O

`CSCC[C@@H]1NC(=O)[C@H](Cc2c[nH]c3ccccc23)NC(=O)[C@@](C)(NC(=O)[C@H](CCCCN)NC(=O)[C@@H](NC(=O)[C@H](CCC(=O)O)NC(=O)[C@H](CCC(N)=O)NC(=O)[C@H](C)N)C(C)C)CCCC=CCCC[C@@](C)(C(=O)N[C@H](C(=O)N[C@@H](CC(C)C)C(=O)N[C@@H](CC(C)C)C(=O)N[C@H](C(=O)N[C@@H](C)C(=O)N[C@@H](CCCCN)C(=O)N[C@@H](CCCCN)C(=O)N[C@@H](CCCCN)C(N)=O)C(C)C)[C@@H](C)O)NC(=O)[C@H]([C@@H](C)O)NC1=O` [NYAD-203, AQEVKXWMTXTLLVAKKK] (H-AQEVK[S5]WMT[S5]TLLVAKKK-NH2; staple 6-10): the half-maximal inhibitory concentration (IC50) in the data set on HIV-1 AZT-R was found to be 11.1 ± 3.82 µM; in the data set with HIV-1 IIIB (read-out: IC50 (μM ± SD), HIV-1 IIIB, laboratory strain, subtype B, MT-2, coreceptor X4), 6.29 ± 0.54 µM; in the data set on HIV-1 IIIB (setting [3]), 6.29 ± 0.54 µM. Moreover, the “Cytotoxicity in Jurkat cells (LDH leakage)” value with Jurkat cells is “more toxic at the two higher doses”. In addition, the CC50 at 7 days in data set [1] worked out at 16 ± 1.47 µM. Moreover, in data set [2], the CC50 at 4 days was determined as 13.2 ± 0.5 µM.

Turning to `CSCC[C@@H]1NC(=O)[C@H](Cc2c[nH]c3ccccc23)NC(=O)[C@@](C)(NC(=O)[C@H](CCCCN)NC(=O)[C@@H](NC(=O)[C@H](C)NC(=O)[C@H](CCC(N)=O)NC(=O)[C@H](C)N)C(C)C)CCCC=CCCC[C@@](C)(C(=O)N[C@H](C(=O)N[C@@H](CC(C)C)C(=O)N[C@@H](CC(C)C)C(=O)N[C@H](C(=O)N[C@@H](CCC(=O)O)C(=O)N[C@@H](CC(N)=O)C(=O)N[C@@H](C)C(N)=O)C(C)C)[C@@H](C)O)NC(=O)[C@H]([C@@H](C)O)NC1=O` [NYAD-212, AQAVKXWMTXTLLVENA] (H-AQAVK[S5]WMT[S5]TLLVENA-NH2; staple 6-10), the IC50 in the data set with HIV-1 IIIB (setting [3]) worked out at 5.95 ± 0.33 µM. Further, the half-maximal cytotoxic concentration (CC50) at 4 days in data set [2] is greater than 102 µM.

For `CSCC[C@@H]1NC(=O)[C@H](Cc2c[nH]c3ccccc23)NC(=O)[C@@](C)(NC(=O)[C@H](CCCCN)NC(=O)[C@@H](NC(=O)[C@H](C)NC(=O)[C@H](CCC(N)=O)NC(=O)[C@H](C)N)C(C)C)CCCC=CCCC[C@@](C)(C(=O)N[C@H](C(=O)N[C@@H](CC(C)C)C(=O)N[C@@H](CC(C)C)C(=O)N[C@@H](CCCCN)C(=O)N[C@@H](C)C(=O)N[C@@H](CC(N)=O)C(=O)N[C@@H](C)C(=O)N[C@@H](CCC(=O)O)C(N)=O)[C@@H](C)O)NC(=O)[C@H]([C@@H](C)O)NC1=O` [NYAD-214, AQAVKXWMTXTLLKANAE] (H-AQAVK[S5]WMT[S5]TLLKANAE-NH2; staple 6-10), the IC50 with HIV-1 IIIB (setting [3]) is 17.4 ± 0.9 µM. In addition, the CC50 at 4 days in data set [2] was greater than 48 µM.

Regarding `CSCC[C@@H]1NC(=O)[C@H](CCCCN)NC(=O)[C@@](C)(NC(=O)[C@H](Cc2c[nH]c3ccccc23)NC(=O)[C@@H](NC(=O)[C@H](CC(C)C)NC(=O)[C@H](CCC(N)=O)NC(=O)[C@@H](N)CCC(=O)O)C(C)C)CCCC=CCCC[C@@](C)(C(=O)N[C@@H](C)C(=O)N[C@@H](CC(C)C)C(=O)N[C@@H](C)C(=O)N[C@H](C(=O)N[C@H](C(N)=O)[C@@H](C)O)C(C)C)NC(=O)[C@H]([C@@H](C)O)NC1=O` [NYAD-215, EQLVWXKMTXALAVT, reference compound] (H-EQLVW[S5]KMT[S5]ALAVT-NH2; staple 6-10), in the data set on HIV-1 IIIB (setting [3]), the IC50 is greater than 56 µM. In addition, the CC50 at 4 days in data set [2] was greater than 112 µM.

`CSCC[C@H](NC(=O)[C@H](Cc1c[nH]c2ccccc12)NC(=O)[C@H](CC(N)=O)NC(=O)[C@H](CCCCN)NC(=O)[C@@H](NC(=O)[C@H](C)NC(=O)[C@H](CCC(N)=O)NC(=O)[C@H](C)N)C(C)C)C(=O)N[C@H](C(=O)N[C@@]1(C)CCCC=CCCC[C@@](C)(C(=O)N[C@@H](C)C(N)=O)NC(=O)[C@H](CC(C)C)NC(=O)[C@H](CC(C)C)NC(=O)[C@H]([C@@H](C)O)NC1=O)[C@@H](C)O` [NYAD-218, AQAVKNWMTXTLLXA] (H-AQAVKNWMT[S5]TLL[S5]A-NH2; staple 10-14): the IC50 with HIV-1 IIIB (setting [3]) was determined as 4.6 ± 0.4 µM. The CC50 at 4 days in data set [2] stood at 67.3 ± 4.4 µM.

Consider `CC(C)C[C@H](NC(=O)[C@H](CC(C)C)NC(=O)[C@@H](NC(=O)[C@]1(C)CCCC=CCCC[C@](C)(NC(=O)[C@H](CCCCN)NC(=O)[C@H](Cc2c[nH]c3ccccc23)NC(=O)[C@H](C)NC(=O)[C@H](CCC(N)=O)NC(=O)[C@H](C)N)C(=O)N[C@@H](Cc2c[nH]c3ccccc23)C(=O)N[C@@H](C)C(=O)N[C@@H]([C@@H](C)O)C(=O)N1)[C@@H](C)O)C(=O)N[C@H](C(=O)N[C@@H](C)C(=O)N[C@@H](CCC(=O)O)C(N)=O)C(C)C` [NYAD-219, AQAWKXWATXTLLVAE] (H-AQAWK[S5]WAT[S5]TLLVAE-NH2; staple 6-10), for which, in the data set on HIV-1 IIIB (setting [3]), the IC50 stood at 3.7 ± 0.06 µM. The CC50 at 4 days in data set [2] was greater than 106 µM.

Consider `CSCC[C@@H]1NC(=O)[C@H](Cc2c[nH]c3ccccc23)NC(=O)[C@@](C)(NC(=O)[C@H](CCCCN)NC(=O)[C@@H](NC(=O)[C@H](C)NC(=O)[C@H](CCC(N)=O)NC(=O)[C@H](C)N)C(C)C)CCCC=CCCC[C@@](C)(C(=O)N[C@H](C(=O)N[C@@H](CC(C)C)C(=O)N[C@@H](CCCCN)C(=O)N[C@H](C(=O)N[C@@H](C)C(=O)N[C@@H](CCC(=O)O)C(N)=O)C(C)C)[C@@H](C)O)NC(=O)[C@H](CCC(=O)O)NC1=O` [NYAD-220, AQAVKXWMEXTLKVAE] (H-AQAVK[S5]WME[S5]TLKVAE-NH2; staple 6-10), for which the IC50 with HIV-1 IIIB (setting [3]) is greater than 52.7 µM. The CC50 at 4 days in data set [2] was greater than 105 µM.

As to `CSCC[C@@H]1NC(=O)[C@H](Cc2c[nH]c3ccccc23)NC(=O)[C@](C)(NC(=O)[C@H](CCCCN)NC(=O)[C@@H](NC(=O)[C@H](C)NC(=O)[C@H](CCC(N)=O)NC(=O)[C@H](C)N)C(C)C)CCCCCCC=CCCC[C@@](C)(C(=O)N[C@H](C(=O)N[C@@H](C)C(N)=O)C(C)C)NC(=O)[C@H](CC(C)C)NC(=O)[C@H]([C@@H](C)O)NC(=O)[C@H](CCC(=O)O)NC(=O)[C@H]([C@@H](C)O)NC1=O` [NYAD-221, AQAVKZWMTETLXVA] (H-AQAVK[R8]WMTETL[S5]VA-NH2; staple 6-13), the IC50 in the data set on HIV-1 IIIB (setting [3]) worked out at 7.97 ± 1.03 µM. For the same compound, the CC50 at 4 days in data set [2] is greater than 140 µM.

For the compound `CC(C)C[C@@H]1NC(=O)[C@H]([C@@H](C)O)NC(=O)[C@H](CCC(=O)O)NC(=O)[C@H]([C@@H](C)O)NC(=O)[C@H](C)NC(=O)[C@H](Cc2c[nH]c3ccccc23)NC(=O)[C@](C)(NC(=O)[C@H](CCCCN)NC(=O)[C@H](Cc2c[nH]c3ccccc23)NC(=O)[C@H](C)NC(=O)[C@H](CCC(N)=O)NC(=O)[C@H](C)N)CCCCCCC=CCCC[C@@](C)(C(=O)N[C@H](C(=O)N[C@@H](C)C(=O)N[C@@H](CC(N)=O)C(N)=O)C(C)C)NC1=O` [NYAD-222, AQAWKZWATETLXVAN] (H-AQAWK[R8]WATETL[S5]VAN-NH2; staple 6-13), the IC50 in the data set with HIV-1 IIIB (setting [3]) is 9.3 ± 1.6 µM. Further, in data set [2], the CC50 at 4 days is greater than 130 µM.

In the case of `CC[C@H](C)[C@H](N)C(=O)N[C@@H](C)C(=O)N[C@@H](CCC(N)=O)C(=O)N[C@@H](C)C(=O)N[C@@H](CCCCN)C(=O)N[C@H](C(=O)N[C@@H](CCC(=O)O)C(=O)N[C@@]1(C)CCCC=CCCC[C@@](C)(C(=O)N[C@H](C(=O)N[C@@H](CC(C)C)C(=O)N[C@@H](CC(C)C)C(=O)N[C@H](C(=O)N[C@@H](C)C(=O)N[C@@H](CC(N)=O)C(N)=O)C(C)C)[C@@H](C)O)NC(=O)[C@H]([C@@H](C)O)NC(=O)[C@H](CCSC)NC(=O)[C@H](Cc2c[nH]c3ccccc23)NC1=O)C(C)C` [NYAD-223, IAQAKVEXWMTXTLLVAN] (H-IAQAKVE[S5]WMT[S5]TLLVAN-NH2; staple 8-12), in the data set with HIV-1 IIIB (setting [3]), the IC50 was 7.2 ± 1.2 µM. Also, the CC50 at 4 days in data set [2] was greater than 124 µM.

As usually defined, the IC50 is the point on the concentration scale where inhibition reaches its midpoint. Broadly, the CC50 is the concentration that lowers cell viability or growth by half.
